According to US20200016130A1, “Methods of Diagnosing and Treating Small Cell Lung Cancer Using Polo-Like Kinase 1 (PLK1) Inhibitors” (Emory University, priority 2017, published 2020):
“Also recorded” adds a separate entry of the source. Where two headings read alike, the source gives them in different places.

How the values were obtained:
[1] = system: panel of SCLC cell lines (DMS53, DMS114, DMS153, H146, H209, H69, H128, H187, H526)
Description: (§2) An agnostic screening approach was employed by evaluating in vitro cytotoxicity of biologically targeted agents that have not been previously evaluated in SCLC clinical trials. […] The cytotoxicity of 10 different targeted agents was determined in a panel of genomically annotated SCLC cell lines by low throughput MTS assay. Inhibitors of the bromodomain, HSP90, CDK2, MEK, PIK3CA and PLK1 were tested in a panel of SCLC cell lines (DMS53, DMS114, DMS153, H146, H209, H69, H128, H187, H526) well characterized for genetic alterations and expression profiles.

[2] = system: TKO-005 PDX of platinum sensitive SCLC; experiment: Patient derived xenograft (PDX) model of platinum sensitive SCLC (TKO-005); assay type: in vivo
Source text: PDX models generated from SCLC patients enrolled in a recently completed translational phase II clinical trial of arsenic trioxide were employed. […] The activity of rigosertib was compared to that of cisplatin (expected to be active in a PDX from a platinum sensitive tumor) and arsenic trioxide (expected to have no efficacy based on the clinical trial outcome for the patient whose tumor biopsy was used to generate the PDX).

[3] = system: panel of SCLC cell lines (DMS53, DMS114, DMS153, H146, H209, H69, H128, H187, H526); experiment: Agnostic cytotoxicity screening of targeted agents in panel of SCLC cell lines (MTS assay); conditions: for IC50 concentration / activity against SCLC cell lines (in words) / In vitro activity versus a priori threshold (submicromolar in vitro cytotoxicity): panel of SCLC cell lines; for In vitro activity versus a priori threshold (submicromolar in vitro cytotoxicity): MTS assay
Description: as §2

A549 NSCLC cell line = experiment: In vitro cytotoxicity before and after shRNA knockdown of TP53 in A549; assay type: cell-based; conditions: compared to parental and vector-treated controls
Description: (§1) Whether depletion of endogenous wild type P53 and enforced expression of active P53 mutant would alter cancer cell line sensitivity to PLK1 inhibitor was evaluated. Due to low transfection efficiency in SCLC cell lines, established NSCLC cell line models were relied on to interrogate PLK1 activity following TP53 gene modulation. In vitro cytotoxicity of PLK1 inhibitors were compared before and after shRNA knockdown of TP53 in H292 and A549. In these cell lines with wild type TP53, there was increased sensitivity to PLK1 inhibitors following shRNA knockdown in comparison to parent cells and vector treated controls (FIG. 4). We also evaluated PLK1 inhibitor activity in p53−/− H1299 cells following enforced expression of active mutant forms of TP53. There was reduced sensitivity of the mutant-bearing cell lines compared to parental p53−/− cells (FIG. 5).

H292 NSCLC cell line = experiment: In vitro cytotoxicity before and after shRNA knockdown of TP53 in H292; assay type: cell-based; conditions: compared to parental and vector-treated controls
Description: as §1

DMS114 SCLC cell line = experiment: In vitro cytotoxicity, low throughput MTS assay, DMS114; assay type: cell-based; conditions: Homo sapiens, DMS-114, TP53 c.637C > T, concurrent hemizygous deletion, read-out: IC50 (nM), cell line sensitivity to volasertib
Description: (§3) The cytotoxicity of 10 different targeted agents was determined in a panel of genomically annotated SCLC cell lines by low throughput MTS assay. Inhibitors of the bromodomain, HSP90, CDK2, MEK, PIK3CA and PLK1 were tested in a panel of SCLC cell lines (DMS53, DMS114, DMS153, H146, H209, H69, H128, H187, H526) well characterized for genetic alterations and expression profiles.

DMS53 SCLC cell line = experiment: In vitro cytotoxicity, low throughput MTS assay, DMS53; assay type: cell-based; conditions: Homo sapiens, DMS-53, TP53 c.722C > T, read-out: IC50 (nM), cell line sensitivity to volasertib
Description: as §2

H187 SCLC cell line = experiment: In vitro cytotoxicity, low throughput MTS assay, H187; assay type: cell-based
Description: as §2

H209 SCLC cell line = experiment: In vitro cytotoxicity, low throughput MTS assay, H209; assay type: cell-based; conditions: Homo sapiens, NCI-H209, TP53 c.673-2A > T, read-out: IC50 (nM), cell line sensitivity to volasertib
Description: as §3

[4] = system: H526 SCLC cell line xenograft; experiment: Subcutaneous xenograft model of H526 SCLC cell line; assay type: in vivo, athymic (nu/nu) mice; conditions: volasertib 30 mg/kg i.p. weekly; p<0.003
Description: To establish whether the promising in vitro activity of these PLK1 inhibitors translates into antitumor efficacy in vivo. The activity of PLK1 inhibitors were compared to that of approved drugs currently employed in the management of SCLC. The in vivo efficacy of volasertib (30 mg/kg i.p. weekly), cisplatin (3 mg/kg i.p. weekly) and irinotecan (25 mg/kg i.p. weekly) was tested, using a subcutaneous xenograft model of the H526 cell line, the most sensitive cell line from our in vitro screen (FIG. 2). Tumor xenografts were established in 6-week old athymic (nu/nu) mice using H526 cells (1-2×10^7) suspended in serum-free medium mixed with Matrigel™ solution and injected subcutaneously into the flank region of nude mice. Treatment began in groups of tumor-bearing mice (approximately 6 mice per group) matched for body weight and tumor volume when the tumors achieved a volume of approximately 100 mm^3.

H69 SCLC cell line = experiment: In vitro cytotoxicity, low throughput MTS assay, H69; assay type: cell-based; conditions: TP53 c.511G > T, concurrent hemizygous deletion, read-out: IC50 (nM), cell line sensitivity to volasertib
Description: as §3

H146 SCLC cell line = experiment: In vitro cytotoxicity, low throughput MTS assay, H146; assay type: cell-based; conditions: Homo sapiens, NCI-H146, TP53 wild type, read-out: IC50 (nM), cell line sensitivity to volasertib
Description: as §2

DMS153 SCLC cell line = experiment: In vitro cytotoxicity, low throughput MTS assay, DMS153; assay type: cell-based; conditions: Homo sapiens, DMS-153, TP53 c.463A > C, read-out: IC50 (nM), cell line sensitivity to volasertib
Description: as §2

Compound | In vitro activity versus a priori threshold (submicromolar in vitro cytotoxicity) [1] | Tumor growth inhibition compared to vehicle [2] | IC50 concentration / activity against SCLC cell lines (in words) [3] | In vitro activity versus a priori threshold (submicromolar in vitro cytotoxicity) [3] | Sensitivity to PLK1 inhibitor after shRNA knockdown of TP53 (A549 NSCLC cell line) | Sensitivity to PLK1 inhibitor after shRNA knockdown of TP53 (H292 NSCLC cell line) | also measured
CCNC(=O)c1noc(-c2cc(C(C)C)c(O)cc2O)c1-c1ccc(CN2CCOCC2)cc1 [AUY922] | met the a priori threshold of activity |  |  |  |  |  | 
CCc1cnn2c(NCc3ccc[n+]([O-])c3)cc(N3CCCC[C@H]3CCO)nc12 [SCH727965] | met the a priori threshold of activity |  |  |  |  |  | 
N.N.[Cl][Pt][Cl] [cisplatin] |  | comparable efficacy |  |  |  |  | 
COc1cc(OC)c(/C=C/S(=O)(=O)Cc2ccc(OC)c(NCC(=O)O)c2)c(OC)c1 [rigosertib] |  | significant tumor growth inhibition comparable to cisplatin | picomolar IC50 concentration; also recorded: low nanomolar to picomolar activity | met the a priori threshold of activity | sensitized | sensitized | Tumor weight compared to vehicle [2]: reduced tumor weight
CC[C@@H]1C(=O)N(C)c2cnc(Nc3ccc(C(=O)N[C@H]4CC[C@H](N5CCN(CC6CC6)CC5)CC4)cc3OC)nc2N1C(C)C [volasertib] |  |  | picomolar IC50 concentration; also recorded: low nanomolar to picomolar activity | met the a priori threshold of activity | sensitized | sensitized | IC50 ([3]; read-out: mean IC50 concentration, less sensitive SCLC cell lines): 0.25 nM; IC50 ([3]; read-out: mean IC50 concentration, more sensitive SCLC cell lines): 0.03 nM; IC50 (DMS114 SCLC cell line): 0.092 nM; IC50 (DMS53 SCLC cell line): 0.118 nM; Surviving viable cells (H187 SCLC cell line; BI6727 concentration of 0.01 nM and higher): no surviving viable cells; IC50 (H187 SCLC cell line; Homo sapiens, NCI-H187, TP53 c.722C > G, concurrent hemizygous deletion, read-out: IC50 (nM), cell line sensitivity to volasertib): 0.004 nM; IC50 (H209 SCLC cell line): 0.057 nM; Tumor growth inhibition relative to control [4]: significant tumor growth inhibition; IC50 (H69 SCLC cell line): 0.018 nM; IC50 (H146 SCLC cell line): 0.163 nM; IC50 (DMS153 SCLC cell line): 0.672 nM
